# Results reported in US20150098969A1, “ALTERNARIA PEPTIDES” (priority 2012, published 2015).
# Where no end group is shown, it is not given here. [ ]: non-standard residue; d: D form. pGlu = O=C1CC[C@@H](C(=O)O)N1; Nle = CCCC[C@H](N)C(=O)O
# Tested on: Peripheral blood mononuclear cells (PBMCs)
# Test: Cytokine release assay (multiplex bead assay IL-10, IL-13, IFN-g) and analysis of population coverage
# Format: cell-based, human
# Conditions: cytokine release greater than 50 pg/ml in one or more of IL-13, IL-10, IFN-g; 50 mould allergic subjects; 100 μg/ml; 5 days
# Method: Polypeptides for use in this assay were manufactured at small scale (approximately 10 mg batch size, non-GMP). […] Polypeptides were added to wells in a volume of 100 μl containing polypeptides at a concentration of […], such that subsequent addition of 100 μl of cells would create a final assay concentration of 100 μg/ml.
# Peripheral blood mononuclear cells (PBMCs) were isolated from heparinised blood by Ficoll density gradient centrifugation. […] Following stimulation, culture supernatants (100 μl) were harvested for testing by multiplex bead assay.
# Multiplex cytokine bead assays (IL-10, IL-13, Interferon gamma (IFN-g)) were performed on thawed culture supernatants according to the manufacturer's instructions. Single measurements were performed for each culture supernatant sample. After completion of the multiplex assay, individual cytokine levels were determined by interpolation from the standard curve generated in the assay. A positive result was taken as a cytokine release of greater than 50 pg/ml in one or more of the IL-13, IL-10 and IFN-g assays. The number of responders out of 50 mould allergic subjects tested was calculated for each polypeptide for the three cytokines.
# An analysis of population coverage was carried out to determine what polypeptides could advantageously capture additional responses from the population when included in combination with other peptides. The number of subjects in the population displaying IL-13 or IFN-g responses to at least one, two or three polypeptides included in a given combination was analysed.
# An analysis of population coverage was then carried out for additional combinations of polypeptides identified as having preferable pharmaceutical development characteristics. The number of subjects in the population displaying IL-13 or IFN-g responses to at least one, two or three polypeptides included in a given combination was analysed.
row,Substance,% responders [%]
1,AEVYQKLKALAKK [Alt12],38
2,AEVYQKLKALAKKTYGQ [Alt13A],86
3,DITYVATATLPNYSR [Alt02A],30
4,GLHFRERKTGSLVIT [Alt21],38
5,GWGV-Nle-VSHRSGET (GWGV[Nle]VSHRSGET) [Alt14A],56
6,GWGVMVSHRSGET [Alt14],44
7,GYTGKIKIA-Nle-DVASSE (GYTGKIKIA[Nle]DVASSE) [Alt15A],42
8,GYTGKIKIAMDVASSE [Alt15],56
9,HEIYVVDRVSAP [Alt30],36
10,IEKLRSNITVQYDI [Alt33],44
11,IFRSLSKEDPDY [Alt04],6
12,IFRSLSKEEPDY [Alt04A],4
13,KDAYITLVTLPKSS [Alt03],22
14,KDITYVATATLPNY [Alt02],36
15,KEYQKIFPSIQVI [Alt09],6
16,KKDAYITLVTLPKSS [Alt03A],16
17,KKVS-Nle-AIAKAAAAEK (KKVS[Nle]AIAKAAAAEK) [Alt11A],44
18,KKVSMAIAKAAAAEK [Alt11],36
19,KKYAGVFVSTGTLGGGK [Alt18],50
20,KLFQVAETLPQEVLDK [Alt17],30
21,KLWHS-Nle-IP-Nle-GRDAK (KLWHS[Nle]IP[Nle]GRDAK) [Alt24A],40
22,KLWHSMIP-Nle-GRDAK (KLWHSMIP[Nle]GRDAK) [Alt24C],36
23,KLWHSMIPMGRDAK [Alt24],34
24,KQLL-Nle-LSAKR-Nle-KVAFK (KQLL[Nle]LSAKR[Nle]KVAFK) [Alt05A],10

row,Substance,% responders [%]
1,KQLL-Nle-LSAKRMKVAFK (KQLL[Nle]LSAKRMKVAFK) [Alt05B],12
2,KQLLMLSAKR-Nle-KVAFK [Alt05C],16
3,KQLLMLSAKRMKVAFK [Alt05],2
4,KRSLLVFAVRSS-Nle-ELRK [Alt27A],42
5,KRSLLVFAVRSSMELRK [Alt27],40
6,KSAFRSIEPELTVYK [Alt10A],34
7,KTYVATATLPNY [Alt02B],22
8,KYRRVVRAGVKVAQTAR [Alt34A],38
9,KYWLYFYKLHPEK [Alt32],36
10,LAITYNSRAEGAEK [Alt20],38
11,LQFTLYRPRDLLS [Alt07],10
12,NEWRDFARVNSISP [Alt23],40
13,NWLTLHTAALGPTAK [Alt31],58
14,PyrKLKALAKKTYGQ ([pGlu]KLKALAKKTYGQ) [Alt13],40
15,SAFRSIEPELTVY [Alt10],42
16,SAKR-Nle-KVAFKLDIEK (SAKR[Nle]KVAFKLDIEK) [Alt06A],10
17,SAKRMKVAFKLDIEK [Alt06],16
18,SLGFNIKATNGGTLD [Alt01A],26
19,SYNVAKAGCIHLAK [Alt22],46
20,SYNVAKAGSIHLAK [Alt22A],44
21,TLYRPRDLLSLLNE [Alt08],10
22,TYYNSLGFNIKATNGGTL [Alt01],20
23,WSWKIGPAIATGNT [Alt28],52
24,YEKYRRVVRAGVKV [Alt34],38

# Same assay, conditions: responders out of 50 individuals
row,Substance,individuals showing a response
1,AEVYQKLKALAKKTYGQ [Alt13A],34/50
